Measured values as given in ChEMBL document CHEMBL1201862, “PubChem BioAssay data set” (2004).
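1) Cells in 96-well plates. 2) Compound, 48 h, 5 concentrations. 3) Linear interpolation between surrounding doses. 4) Unreached endpoint = highest concentration. GI50 marks 50% less growth.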 Calls of active or inactive are those of the source. No stated cut-off is given here; in the data, active = GI50 up to about 1.1 µM and inactive = higher.

Tests used:
Test in all cases: DTP human tumour cell line panel, 48 h
SNB-78 = tested on: SNB-78
M19-MEL = tested on: M19-MEL
DMS-273 = tested on: DMS-273
DLD-1 = tested on: DLD-1
HOP-18 = tested on: HOP-18
DMS-114 = tested on: DMS-114
XF498 = tested on: XF498
LXFL 529 = tested on: LXFL 529
RXF 631 = tested on: RXF 631

SMILES	GI50 (SNB-78)	GI50 (M19-MEL)	GI50 (DMS-273)	GI50 (DLD-1)	GI50 (HOP-18)	GI50 (DMS-114)	GI50 (XF498)	GI50 (LXFL 529)	GI50 (RXF 631)
COc1ccc2c(c1)[n+]([O-])c(-c1cccc(Cl)c1)c(N)[n+]2[O-]	79.8 µM (inactive)	30.3 µM (inactive)	33.6 µM (inactive)	38.2 µM (inactive)	> 100 µM (inactive)	23.1 µM (inactive)	> 100 µM (inactive)	–	–
CN(C)CCNC(=O)c1cccc2cc3cc(O)ccc3nc12	2.47 µM (inactive)	1.2 µM (inactive)	0.662 µM (active)	1.42 µM (inactive)	1.32 µM (inactive)	1.37 µM (inactive)	0.916 µM (active)	–	–
N#C/C(=C/c1ccco1)C(=O)c1ccccc1	> 100 µM (inactive)	> 100 µM (inactive)	–	> 100 µM (inactive)	> 100 µM (inactive)	> 100 µM (inactive)	> 100 µM (inactive)	> 100 µM (inactive)	> 100 µM (inactive)
COc1cc(C2C(C(=O)Nc3ccccc3C)=C(C)NC(C)=C2C(=O)Nc2ccccc2C)ccc1O	> 100 µM (inactive)	> 100 µM (inactive)	> 100 µM (inactive)	> 100 µM (inactive)	> 100 µM (inactive)	> 100 µM (inactive)	87.5 µM (inactive)	> 100 µM (inactive)	> 100 µM (inactive)
Cc1ccc(S(=O)(=O)N/N=C(/c2nc3ccc([N+](=O)[O-])cc3nc2O)C(O)c2ccc(C(O)/C(=N\NS(=O)(=O)c3ccc(C)cc3)c3nc4ccc([N+](=O)[O-])cc4nc3O)cc2)cc1 (stereo unspecified)	> 100 µM (inactive)	–	38.4 µM (inactive)	33.3 µM (inactive)	–	5.98 µM (inactive)	> 100 µM (inactive)	21.4 µM (inactive)	56.5 µM (inactive)
CS(=O)(=O)N/N=C/CN1C(=O)c2ccccc2C1=O	> 100 µM (inactive)	> 100 µM (inactive)	> 100 µM (inactive)	> 100 µM (inactive)	> 100 µM (inactive)	> 100 µM (inactive)	> 100 µM (inactive)	> 100 µM (inactive)	–
COc1ccc(Br)c(CN2CCc3ccccc32)c1OS(=O)(=O)c1ccc(C)cc1	23.3 µM (inactive)	4.03 µM (inactive)	–	15.3 µM (inactive)	> 100 µM (inactive)	18.3 µM (inactive)	12.4 µM (inactive)	–	34.4 µM (inactive)
CC1C(/C=C/c2ccoc2)ON2CCCC12 (stereo unspecified)	> 100 µM (inactive)	> 100 µM (inactive)	> 100 µM (inactive)	> 100 µM (inactive)	> 100 µM (inactive)	–	–	> 100 µM (inactive)	–
CN1c2ccccc2N(C(=O)c2ccc([N+](=O)[O-])cc2)C(CC(=O)O)c2cccn21 (stereo unspecified)	> 100 µM (inactive)	> 100 µM (inactive)	> 100 µM (inactive)	> 100 µM (inactive)	–	> 100 µM (inactive)	> 100 µM (inactive)	> 100 µM (inactive)	–
COC(C(O)c1ccc2c(c1)OCO2)P(=O)(c1ccccc1)c1ccccc1 (stereo unspecified)	> 100 µM (inactive)	> 100 µM (inactive)	> 100 µM (inactive)	88.7 µM (inactive)	–	77.3 µM (inactive)	> 100 µM (inactive)	–	–
c1ccc(N/N=C2\NN=C(c3ccccc3)CS2)cc1	5.46 µM (inactive)	–	–	–	–	–	–	–	5.52 µM (inactive)
Nc1cc(O)c2cc(/N=N/c3ccc(/N=N/c4ccc(/N=N/c5ccc6cc(S(=O)(=O)O)cc(S(=O)(=O)O)c6c5)c5ccccc45)c4cc(S(=O)(=O)O)ccc34)c(S(=O)(=O)O)cc2c1	> 100 µM (inactive)	> 100 µM (inactive)	97.1 µM (inactive)	> 100 µM (inactive)	> 100 µM (inactive)	–	> 100 µM (inactive)	–	–
COC1O[C@H]2CCN(C(=O)OCc3ccccc3)[C@H]2[C@H]1OCc1ccccc1 (stereo partly specified)	54.8 µM (inactive)	53 µM (inactive)	39.1 µM (inactive)	48.3 µM (inactive)	> 100 µM (inactive)	29.6 µM (inactive)	35.2 µM (inactive)	40.2 µM (inactive)	–
COC(=O)C1=C(O)c2cc3c(cc2[C@H](c2cc(OC)c(OC)c(OC)c2)C1C(=O)OC)OCO3 (stereo partly specified)	53.2 µM (inactive)	39.5 µM (inactive)	65.2 µM (inactive)	67 µM (inactive)	29.2 µM (inactive)	25 µM (inactive)	25.1 µM (inactive)	56.5 µM (inactive)	> 100 µM (inactive)
COc1cc(C2c3cc4c(cc3[C@@H](Oc3ccc(F)cc3)C3COC(=O)[C@H]23)OCO4)cc(OC)c1O (stereo partly specified)	–	0.671 µM (active)	0.337 µM (active)	0.656 µM (active)	87.1 µM (inactive)	–	–	–	–
